One compound from patent US9296687B2, “Modulators of HSP70/DnaK function and methods of use thereof” (The Trustees of the University of Pennsylvania, priority 2008, dated 2016) can be followed below.

The test system of one test is E. coli. Nature of the test: Growth curves and morphology of E. coli at 35° C. or 43° C. It counts as cell-based. As for the experimental part: FIG. 3. PES and E. coli. (A) Identification of DnaK as Biotin-PES (B-PES) interacting protein in bacteria by liquid chromatography-tandem mass spectrometry, as described herein below. (B) The amino acid sequence of DnaK (SEQ ID NO: 7); the residues detected by mass spectrometry are shown in bold and underlined. (C) Growth curves of E. coli treated with different concentrations of PES either at 35° C. or 43° C. […] (D) Bacterial morphology (phase contrast microscopy) following treatment of the cells with PES at the indicated temperatures. Note evidence of filamentation and aggregation at higher concentrations of PES, especially at 43° C.

The target of test [1] is T1, HSP70 (Homo sapiens, UniProt P0DMV8). Nature of the test: Capture of HA-tagged HSP70 constructs from transfected H1299 cells with biotinylated compound. It counts as binding. Also noted: expressed in transfected cells; host or cells: H1299. The note with it: biotinylated compound, 6 hours. As for the experimental part:
FIG. 1. PES Binds to HSP70. (A) Whole cell extracts (WCE) prepared from A875 and BCL-xL over-expressing U2OS human osteosarcoma cells (BX-U2OS) cells, treated with Biotin or Biotin-PES (B-PES), were captured using NeutrAvidin agarose resins. HSP70-family proteins were identified as the major product in the excised band of ˜70 kDa shown in both Coomassie gels. (B and C) WCE were prepared from the cell lines indicated following 24 h treatment with 20 μM Biotin or B-PES and examined for the expression of proteins indicated (left panel of B and C) by western blot analysis; note that different exposure times were used to visualize these proteins. […] (D) In vitro evidence for an interaction between B-PES and HSP70. Full-length human HSP70 and human HSP90 proteins were in vitro translated in the presence of ^35S-methionine, mixed with B-PES coupled to NeutrAvidin resins, and eluted using 100 mM DTT. The resulting DTT eluates were separated by polyacrylamide gel electrophoresis (SDS-PAGE) and visualized by autoradiography. (E) B-PES interacts with the C-terminal region of HSP70. H1299 cells were transfected with the indicated hemagglutinin (HA)-tagged constructs and exposed to B-PES. B-PES containing complexes were captured by NeutrAvidin Resins, eluted following 100 mM DTT treatment, and immunoblotted with anti-HA antibody following SDS-PAGE. (F) Non-transformed human IMR90 fibroblasts or H1299 lung carcinoma cells were treated with the indicated concentrations of PES for 24 h and cell viability was determined by MTT assays. (G) WCE were prepared from the cell lines indicated following 5 hr treatment with 20 μM PES or B-PES and examined for the expression of proteins indicated (left panel) by western blot analysis; note that different exposure times were used to visualize these proteins. B-PES-containing complexes were captured by NeutrAvidin resins, eluted following 50 mM DTT treatment, and immunoblotted using the indicated antibodies.
The free amide group of PES-Cl was biotinylated and added to HA-tagged HSP70-transfected H1299 cells. The treatment of the cells occurred for 6 hours. The complexes were pulled down with NeutrAvidin beads, eluted with 100 mM DTT treatments, separated with SDS-PAGE and detected with anti-HA antibody (Millipore) by Western blot.
Docking studies were performed using the C-terminal HSP70 crystal structure (FIG. 32) to elucidate the PES binding site in silico (FIG. 33). Blind docking methods were used in the program AutoDock to locate potential PES binding sites. These methods use a course grid docking approach, encompassing the entire protein, to identify favorable binding sites using a known binding ligand, and are examined by hand to support the AutoDock data. […]
Target sequence in this assay (P0DMV8 2-641): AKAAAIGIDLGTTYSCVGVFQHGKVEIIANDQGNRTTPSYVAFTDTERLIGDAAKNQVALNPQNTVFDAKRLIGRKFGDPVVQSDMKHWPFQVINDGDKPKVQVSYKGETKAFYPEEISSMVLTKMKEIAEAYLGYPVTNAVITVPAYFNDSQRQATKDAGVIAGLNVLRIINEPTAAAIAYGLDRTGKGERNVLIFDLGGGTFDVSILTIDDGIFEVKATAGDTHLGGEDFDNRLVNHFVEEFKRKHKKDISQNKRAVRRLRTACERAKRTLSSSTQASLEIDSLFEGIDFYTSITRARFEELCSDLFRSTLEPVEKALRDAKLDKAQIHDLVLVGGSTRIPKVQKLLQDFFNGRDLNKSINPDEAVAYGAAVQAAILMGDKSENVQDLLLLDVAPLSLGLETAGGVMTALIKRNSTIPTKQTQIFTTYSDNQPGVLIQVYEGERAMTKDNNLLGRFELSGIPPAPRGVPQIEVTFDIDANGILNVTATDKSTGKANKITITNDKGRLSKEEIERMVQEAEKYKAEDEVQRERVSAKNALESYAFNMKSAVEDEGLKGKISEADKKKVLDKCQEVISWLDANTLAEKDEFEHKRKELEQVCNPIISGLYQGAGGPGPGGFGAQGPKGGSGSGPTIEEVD

For test [2], the system named is H1299 and FaDu; 6113 and WI38. Briefly: MTT assay, tumorogenic versus normal fibroblast cell lines. The note with it: various concentrations, 48 hours. The test is classed as cell-based, human. As for the experimental part: H1299 cells were seeded on […] and treated with 10 μM PES or 10 μM PES-Cl. DMSO treated cells were used as a control and the proliferation of the H1299 cells was observed over 24 and 48 hours of treatment. The cells were imaged by light microscopy with 20× magnification (FIG. 28). Non-tumorogenic and tumorogenic cells were then treated with PES-Cl to observe its toxicity and effect on proliferation. Two tumorogenic cell lines (H1299 and FaDu) and two normal fibroblast cell lines (6113 and WI38) were seeded on a 96-well plate. The cells were treated with various concentrations of PES and PES-Cl. Forty-eight hours post-treatment MTT assays (Cayman Chemical Company) were performed (FIG. 29).

The target in test [3] is T1, HSP70. Nature of the test: Competition of untagged PES with B-PES for HSP70. Also noted: endogenous in cells; host or cells: human tumor cell lines (A875, BX-U2OS, U2OS, H1299, MiaPaCa2, HepG2, SKBR3, 293T). The test is classed as binding. As for the experimental part: FIG. 15. Evidence supporting HSP70 as the cellular target of PES. (A) Competition studies in vivo support HSP70 as a PES target. H1299 cells were either pre-treated with DMSO or excess (25×) untagged PES for 1 h prior to the addition of 20 μM Biotin-PES (B-PES) for 5 h, and examined for the expression of proteins indicated (left). B-PES-containing complexes were captured by NeutrAvidin Resins, and immunoblotted using the indicated antibodies. […] (B) Competition studies in vitro support HSP70 as a PES target. Purified HSP70 protein was incubated with 0.25 mM B-PES in the absence and in the presence of 0.125 mM untagged PES.
Target sequence in this assay (P0DMV8 whole entry): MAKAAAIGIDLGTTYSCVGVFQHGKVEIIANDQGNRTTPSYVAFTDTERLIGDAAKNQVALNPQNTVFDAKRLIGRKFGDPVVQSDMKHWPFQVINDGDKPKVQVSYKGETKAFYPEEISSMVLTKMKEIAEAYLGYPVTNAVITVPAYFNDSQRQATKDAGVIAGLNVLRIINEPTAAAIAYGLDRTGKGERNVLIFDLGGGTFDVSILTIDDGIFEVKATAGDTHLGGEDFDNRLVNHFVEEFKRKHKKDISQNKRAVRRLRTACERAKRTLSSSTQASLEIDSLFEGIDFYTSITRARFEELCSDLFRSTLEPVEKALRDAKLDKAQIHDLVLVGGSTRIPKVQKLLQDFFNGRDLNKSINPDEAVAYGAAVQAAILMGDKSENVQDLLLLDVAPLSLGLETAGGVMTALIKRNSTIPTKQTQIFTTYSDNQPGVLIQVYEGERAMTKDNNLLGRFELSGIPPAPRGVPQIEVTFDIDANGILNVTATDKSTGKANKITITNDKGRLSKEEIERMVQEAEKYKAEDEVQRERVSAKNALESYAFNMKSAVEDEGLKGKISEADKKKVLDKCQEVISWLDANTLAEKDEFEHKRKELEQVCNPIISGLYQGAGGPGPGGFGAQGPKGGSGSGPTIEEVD

For `NS(=O)(=O)C#Cc1ccccc1` [PES, 2-Phenylethynesulfonamide], in the test on E. coli, the “response of the bacteria to elevated temperatures” value is “slow growth, filamentation, and reduced viability”. Further, the “cell proliferation of E. coli” value in the test with E. coli (increasing concentrations, 35° C. or 43° C.) is on record as “inhibited in a dose-dependent fashion”. For the same compound, the “interaction with HA-tagged HSP70” value on HSP70 [1] is listed as “interact with HSP70”. Further, in test [2], the “cell survival, tumorogenic versus non-tumorogenic cells” value is listed as “greater concentration dependent effect on cell survival in tumorogenic cells”. In addition, on HSP70 [3] (H1299 cells, excess (25×) untagged PES 1 h, then 20 μM B-PES 5 h), the “binding of HSP70 to B-PES matrix with competitor” value was “Binding of HSP70 to the matrix is reduced”. At HSP70 [3] (purified HSP70, 0.25 mM B-PES, 0.125 mM untagged PES), the B-PES/HSP70 complex formation entry is “reduces B-PES/HSP70 complex formation”.
